Assay results as given in patent US7799809B2, “Carboxamide compounds and their use as calpain inhibitors” (Abbott GmbH & Co. KG, priority 2006, dated 2010).

Experiments:
Assay type in all cases: biochemical
cathepsin B = molecular target: T1, cathepsin B (Homo sapiens, UniProt P07858); assay: Cathepsin B enzyme inhibition in vitro (kinetic fluorescence assay); conditions: cathepsin B isolated from human liver vs calpain I
T1 construct: cathepsin B—isolated from human liver (Calbiochem #219362); purchased Calbiochem 219362; host or cells: human liver (tissue-derived)
Method in brief: (§1)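 Inhibition is measured at room temperature in cysteine-containing MES buffer, pH 6.0, by continuous fluorescence at 460 nm. Cathepsin S (0.5 nM) uses 20 μM Z-Val-Val-Arg-AMC; L (1 nM) and B (0.25 nM) use Z-Phe-Arg-AMC at 2 and 100 μM respectively.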

cathepsin K = molecular target: T2, cathepsin K (Homo sapiens, UniProt P43235); assay: Cathepsin K enzyme inhibition in vitro (kinetic fluorescence assay); conditions: cathepsin K activated from recombinant human procathepsin K vs calpain I
T2 construct: purchased Calbiochem 342001; host or cells: E. coli
T2 sequence (P43235 115-329): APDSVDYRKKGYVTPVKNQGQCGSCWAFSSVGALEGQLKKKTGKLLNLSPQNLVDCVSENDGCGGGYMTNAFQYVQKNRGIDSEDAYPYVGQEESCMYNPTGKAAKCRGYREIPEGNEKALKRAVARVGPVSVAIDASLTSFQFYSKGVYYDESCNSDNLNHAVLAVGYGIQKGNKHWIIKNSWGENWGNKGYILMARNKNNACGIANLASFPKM
Procedure: The following solutions and buffers were employed: • HBS (for 40 ml): 800 μl M HEPES; 2.16 ml 100 mM KCl; 4.8 ml 1M NaCl; 3.59 ml 5% glucose; 60 μl μM MgSO4; 400 μl 100 mM Na pyruvate, 28.19 ml water; pH 7.2-7.5. • lysis buffer (for 20 ml): 400 μl M Tris pH 8.2; 2.74 ml 1M NaCl; 520 μl 0.5M EDTA; 2 ml 10% triton X-100; 0.8 ml (=1:25) CompletePlus (1 tablet/2 ml H2O); 200 μl 100 mM Pefabloc; 13.34 ml water, pH 8.2. • TBST (10×) (for 1 l): 100 mM Tris (12.1 g); 1.5M NaCl (87 g); 1% Tween 20 (10 g), adjusted to pH 8. I Enzyme Inhibition In Vitro: • Testing for blockade of the corresponding enzymic activities was carried out by means of kinetic fluorescence assays (excitation 390 nm, emission 460 nm). • Apparent Ki values were calculated from the experimentally determined IC50 values by the Cheng-Prussoff relation assuming a reversible competitive enzyme inhibition. The Km values of the substrates used under the assay conditions indicated above were: 90 μM (Z-Phe-Arg-AMC, cathepsin B), 10 μM (Z-Gly-Pro-Arg-AMC, cathepsin K), 2 μM (Z-Phe-Arg-AMC, cathepsin L), and 30 μM (Z-Val-Val-Arg-AMC, cathepsin S). • The indicated Ki values are averages of the inhibition constants calculated on the basis of 2 to 4 independent dose-effect plots.
The following assays were used: • 1. Calpain I: • 20 nM calpain-I—isolated from human erythrocytes (Calbiochem #208713), 100 μM Suc-Leu-Tyr-AMC (Bachem #1-1355) as substrate in buffer with 62 mM imidazole, 0.3 mM CaCl2, 0.10% CHAPS, 0.05% BSA, 1 mM DTT at pH 7.3 and room temperature. • 2. Cathepsin B: • 0.25 nM cathepsin B—isolated from human liver (Calbiochem #219362), 100 μM Z-Phe-Arg-AMC (Bachem #I-1160) as substrate 50 mM MES, 2 mM EDTA, 0.05% Brij 35, 2.5 mM L-cysteine, pH 6.0, room temperature. • 3. Cathepsin K: • 3 nM cathepsin K—activated from recombinant human procathepsin K from E. coli (Calbiochem #342001), 10 μM Z-Gly-Pro-Arg-AMC (Biomol #P-142) as substrate in 50 mM MES, 2 mM EDTA, 0.05% Brij 35, 2.5 mM L-cysteine, pH 6.0, room temperature. • 4. Cathepsin L: • 1 nM cathepsin L—isolated from human liver (Calbiochem #219402), 2 μM Z-Phe-Arg-AMC (Bachem #1-1160) as substrate in 50 mM MES, 2 mM EDTA, 0.05% Brij 35, 2.5 mM L-cysteine, pH 6.0, room temperature. • 5. Cathepsin S: • 0.5 nM recombinant human cathepsin S from E. coli (Calbiochem #219343), 20 μM Z-Val-Val-Arg-AMC (Bachem #1-1540) as substrate in 50 mM MES, 2 mM EDTA, 0.05% Brij 35, 2.5 mM L-cysteine, pH 6.0, room temperature. • The results of the in vitro determination are indicated in Table 1. The following abbreviations are used in Table 1: • The “Calpain activity” column, ++ stands for a calpain Ki (Ki(calpain)) of ≦40 nM and + means: 40 nM<Ki(Calpain)≦100 nM. • The “Sel. cat. B” column indicates the Ki(cathepsin B)/Ki(calpain) ratio. In this connection, ++ means a Ki(cathepsin B)/Ki(calpain) ratio of ≧30 and + means 10≦Ki(cathepsin B)/Ki(calpain)<30. • The “Sel. cat. K” column indicates the Ki(cathepsin K)/Ki(calpain) ratio. In this connection, ++ means a Ki(cathepsin K)/Ki(calpain) ratio of ≧30 and + means 10≦Ki(cathepsin K)/Ki(calpain)<30. • The “Sel. cat. L” column indicates the Ki(cathepsin L)/Ki(calpain) ratio. In this connection, ++ means a Ki(cathepsin L)/Ki(calpain) ratio of ≧50 and + means 30≦Ki(cathepsin L)/Ki(calpain)<50. • The “Sel. cat. S” column indicates the Ki(cathepsin S)/Ki(calpain) ratio. In this connection, ++ means a Ki(cathepsin S)/Ki(calpain) ratio of ≧100 and + means 50≦Ki(cathepsin S)/Ki(calpain)<100.

cathepsin L = molecular target: T3, cathepsin L (Homo sapiens, UniProt P07711); assay: Cathepsin L enzyme inhibition in vitro (kinetic fluorescence assay); conditions: cathepsin L isolated from human liver vs calpain I
T3 construct: cathepsin L—isolated from human liver (Calbiochem #219402); purchased Calbiochem 219402; host or cells: human liver (tissue-derived)
Method in brief: as §1

cathepsin S = molecular target: T4, cathepsin S (Homo sapiens, UniProt P25774); assay: Cathepsin S enzyme inhibition in vitro (kinetic fluorescence assay); conditions: recombinant human cathepsin S vs calpain I
T4 construct: purchased Calbiochem 219343; host or cells: E. coli
Method in brief: as §1

T4 sequence (P25774 115-331): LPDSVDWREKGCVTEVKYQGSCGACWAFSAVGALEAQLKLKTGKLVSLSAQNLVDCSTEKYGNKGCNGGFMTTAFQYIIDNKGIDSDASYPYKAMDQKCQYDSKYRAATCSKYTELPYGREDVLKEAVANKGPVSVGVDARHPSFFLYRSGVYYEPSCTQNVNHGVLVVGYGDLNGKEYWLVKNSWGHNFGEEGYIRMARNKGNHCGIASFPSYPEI
T3 sequence (P07711 114-333): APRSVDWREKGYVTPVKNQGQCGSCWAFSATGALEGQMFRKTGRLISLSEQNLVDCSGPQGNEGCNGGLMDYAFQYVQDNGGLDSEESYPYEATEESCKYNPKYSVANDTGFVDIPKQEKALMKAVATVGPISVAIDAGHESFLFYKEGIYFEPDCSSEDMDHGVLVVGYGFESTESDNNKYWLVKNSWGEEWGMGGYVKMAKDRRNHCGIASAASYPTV

Row | Structure (SMILES) | Sel cat. B: Ki(cathepsin B)/Ki(calpain) ratio (cathepsin B) | Sel cat. K: Ki(cathepsin K)/Ki(calpain) ratio (cathepsin K) | Sel cat. L: Ki(cathepsin L)/Ki(calpain) ratio (cathepsin L) | Sel cat. S: Ki(cathepsin S)/Ki(calpain) ratio (cathepsin S)
1 | NC(=O)C(=O)C(Cc1ccccc1)NC(=O)c1cccnc1-n1ccc(-c2ccc(C(F)(F)F)cc2)n1 (stereo not shown) [Example 60, N-(3-Amino-1-benzyl-2,3-dioxopropyl)-2-{3-[4-(trifluoromethyl)phenyl]-1H-pyrazol-1-yl}nicotinamide] | + (+ means 10≦Ki(cathepsin B)/Ki(calpain)<30) | + (+ means 10≦Ki(cathepsin K)/Ki(calpain)<30) | ++ (++ means a Ki(cathepsin L)/Ki(calpain) ratio of ≧50) | + (+ means 50≦Ki(cathepsin S)/Ki(calpain)<100)
2 | NC(=O)C(=O)C(Cc1ccccc1)NC(=O)c1cccnc1-n1cc2c(n1)-c1ccccc1CC2 (stereo not shown) [Example 63, N-(3-Amino-1-benzyl-2,3-dioxopropyl)-2-(4,5-dihydro-2H-benzo[g]indazol-2-yl)nicotinamide] | + (+ means 10≦Ki(cathepsin B)/Ki(calpain)<30) | + (+ means 10≦Ki(cathepsin K)/Ki(calpain)<30) | ++ (++ means a Ki(cathepsin L)/Ki(calpain) ratio of ≧50) | ++ (++ means a Ki(cathepsin S)/Ki(calpain) ratio of ≧100)
3 | NC(=O)C(=O)C(Cc1ccc(Cl)cc1)NC(=O)c1cccnc1-n1ccc(-c2ccc(F)cc2)n1 (stereo not shown) [Example 67, N-[3-Amino-1-(4-chlorobenzyl)-2,3-dioxopropyl]-2-[3-(4-fluorophenyl)-1H-pyrazol-1-yl]nicotinamide] | + (+ means 10≦Ki(cathepsin B)/Ki(calpain)<30) | + (+ means 10≦Ki(cathepsin K)/Ki(calpain)<30) | ++ (++ means a Ki(cathepsin L)/Ki(calpain) ratio of ≧50) | ++ (++ means a Ki(cathepsin S)/Ki(calpain) ratio of ≧100)
4 | NC(=O)C(=O)C(Cc1ccccc1)NC(=O)c1cccnc1-n1ccc(-c2ccc(N3CCCC3)cc2)n1 (stereo not shown) [Example 69, N-(3-Amino-1-benzyl-2,3-dioxopropyl)-2-[3-(4-pyrrolidin-1-ylphenyl)-1H-pyrazol-1-yl]nicotinamide] | + (+ means 10≦Ki(cathepsin B)/Ki(calpain)<30) | + (+ means 10≦Ki(cathepsin K)/Ki(calpain)<30) | ++ (++ means a Ki(cathepsin L)/Ki(calpain) ratio of ≧50) | ++ (++ means a Ki(cathepsin S)/Ki(calpain) ratio of ≧100)
5 | NC(=O)C(=O)C(Cc1ccccc1)NC(=O)c1cccnc1-n1ccc(-c2cccc(Cl)c2)n1 (stereo not shown) [Example 70, N-(3-Amino-1-benzyl-2,3-dioxopropyl)-2-[3-(3-chlorophenyl)-1H-pyrazol-1-yl]nicotinamide] | + (+ means 10≦Ki(cathepsin B)/Ki(calpain)<30) | + (+ means 10≦Ki(cathepsin K)/Ki(calpain)<30) | ++ (++ means a Ki(cathepsin L)/Ki(calpain) ratio of ≧50) | ++ (++ means a Ki(cathepsin S)/Ki(calpain) ratio of ≧100)
6 | NC(=O)C(=O)C(Cc1ccccc1)NC(=O)c1cccnc1-n1ccc(-c2ccc(F)cc2Cl)n1 (stereo not shown) [Example 71, N-(3-Amino-1-benzyl-2,3-dioxopropyl)-2-[3-(2-chloro-4-fluorophenyl)-1H-pyrazol-1-yl]nicotinamide] | ++ (++ means a Ki(cathepsin B)/Ki(calpain) ratio of ≧30) | ++ (++ means a Ki(cathepsin K)/Ki(calpain) ratio of ≧30) | ++ (++ means a Ki(cathepsin L)/Ki(calpain) ratio of ≧50) | ++ (++ means a Ki(cathepsin S)/Ki(calpain) ratio of ≧100)
7 | NC(=O)C(=O)C(Cc1ccccc1)NC(=O)c1cccnc1-n1ccc(-c2ccccc2C(F)(F)F)n1 (stereo not shown) [Example 72, N-(3-Amino-1-benzyl-2,3-dioxopropyl)-2-{3-[2-(trifluoromethyl)phenyl]-1H-pyrazol-1-yl}nicotinamide] | + (+ means 10≦Ki(cathepsin B)/Ki(calpain)<30) | + (+ means 10≦Ki(cathepsin K)/Ki(calpain)<30) | + (+ means 30≦Ki(cathepsin L)/Ki(calpain)<50) | ++ (++ means a Ki(cathepsin S)/Ki(calpain) ratio of ≧100)
8 | NC(=O)C(=O)C(Cc1ccccc1)NC(=O)c1cccnc1-n1ccc(-c2ccccc2F)n1 (stereo not shown) [Example 76, N-(3-Amino-1-benzyl-2,3-dioxopropyl)-2-[3-(2-fluorophenyl)-1H-pyrazol-1-yl]nicotinamide] | ++ (++ means a Ki(cathepsin B)/Ki(calpain) ratio of ≧30) | + (+ means 10≦Ki(cathepsin K)/Ki(calpain)<30) | ++ (++ means a Ki(cathepsin L)/Ki(calpain) ratio of ≧50) | ++ (++ means a Ki(cathepsin S)/Ki(calpain) ratio of ≧100)
9 | NC(=O)C(=O)C(Cc1ccccc1)NC(=O)c1cccnc1-n1ccc(-c2ccc(Cl)cc2Cl)n1 (stereo not shown) [Example 79, N-(3-Amino-1-benzyl-2,3-dioxopropyl)-2-[3-(2,4-dichlorophenyl)-1H-pyrazol-1-yl]nicotinamide] | ++ (++ means a Ki(cathepsin B)/Ki(calpain) ratio of ≧30) | ++ (++ means a Ki(cathepsin K)/Ki(calpain) ratio of ≧30) | ++ (++ means a Ki(cathepsin L)/Ki(calpain) ratio of ≧50) | ++ (++ means a Ki(cathepsin S)/Ki(calpain) ratio of ≧100)
10 | COc1ccc(CC(NC(=O)c2cccnc2-n2ccc(-c3ccccc3)n2)C(=O)C(N)=O)cc1 (stereo not shown) [Example 80, N-[3-Amino-1-(4-methoxybenzyl)-2,3-dioxopropyl]-2-(3-phenyl-1H-pyrazol-1-yl)nicotinamide] | ++ (++ means a Ki(cathepsin B)/Ki(calpain) ratio of ≧30) | + (+ means 10≦Ki(cathepsin K)/Ki(calpain)<30) | ++ (++ means a Ki(cathepsin L)/Ki(calpain) ratio of ≧50) | ++ (++ means a Ki(cathepsin S)/Ki(calpain) ratio of ≧100)
